# Experimental data taken from PubChem BioAssay AID2060505 (Molecular Pharmacology Branch, DTP, NCI, 2025).
# Tested on: 633275-114-R-J1-PDC complex spheroids, viability
# Experiment: Anticancer human tumor 633275-114-R-J1-PDC patient-derived endometrial adenocarcinoma cell line growth inhibition [GQUAD]
# Details: for IC50: curve of first compound; for viability, T/C: stronger effect = lower value
# Method in brief: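 Tumor cells were grown as complex spheroids with HUVEC endothelial cells and mesenchymal stem cells as stroma. G-quadruplex stabilizers were combined with targeted agents over half-log dilutions from near the clinical Cmax, or from 10 microM.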
# [1] = second compound 0.0316 µM, first compound 0.0316 µM
# [2] = second compound 0.0316 µM, first compound 0.1 µM
# [3] = second compound 0.0316 µM, first compound 0.316 µM
# [4] = second compound 0.0316 µM, first compound 1 µM
# [5] = second compound 0.0316 µM, first compound 3.16 µM
# [6] = second compound 0.0316 µM, first compound 10 µM
# [7] = second compound 0.1 µM, first compound 0.0316 µM
# [8] = second compound 0.1 µM, first compound 0.1 µM
# [9] = second compound 0.1 µM, first compound 0.316 µM
# [10] = second compound 0.1 µM, first compound 1 µM
# [11] = second compound 0.1 µM, first compound 3.16 µM
# [12] = second compound 0.1 µM, first compound 10 µM
# [13] = second compound 0.316 µM, first compound 0.0316 µM
# [14] = second compound 0.316 µM, first compound 0.1 µM
# [15] = second compound 0.316 µM, first compound 0.316 µM
# [16] = second compound 0.316 µM, first compound 1 µM
# [17] = second compound 0.316 µM, first compound 3.16 µM
# [18] = second compound 0.316 µM, first compound 10 µM
# [19] = second compound 1 µM, first compound 0.0316 µM
# [20] = second compound 1 µM, first compound 0.1 µM
# [21] = second compound 1 µM, first compound 0.316 µM
# [22] = second compound 1 µM, first compound 1 µM
# [23] = second compound 1 µM, first compound 3.16 µM
# [24] = second compound 1 µM, first compound 10 µM
# [25] = second compound 3.16 µM, first compound 0.0316 µM
# [26] = second compound 3.16 µM, first compound 0.1 µM
# [27] = second compound 3.16 µM, first compound 0.316 µM
# [28] = second compound 3.16 µM, first compound 1 µM
# [29] = second compound 3.16 µM, first compound 3.16 µM
# [30] = second compound 3.16 µM, first compound 10 µM
# [31] = second compound 10 µM, first compound 0.0316 µM
# [32] = second compound 10 µM, first compound 0.1 µM
# [33] = second compound 10 µM, first compound 0.316 µM
# [34] = second compound 10 µM, first compound 1 µM
# [35] = second compound 10 µM, first compound 3.16 µM
# [36] = second compound 10 µM, first compound 10 µM
# 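Also: spheroids exposed to the agents for seven days.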
# 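For viability, T/C in this document: percent of DMSO vehicle control viability which is 100%.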
structure (smiles),measurement,setting,value
C=CC(=O)N1CCN(c2nc(=O)n(-c3c(C)ccnc3C(C)C)c3nc(-c4c(O)cccc4F)c(F)cc23)C(C)C1 (stereo not drawn) + Cc1cnc(CNC(=O)c2c(=O)c3ccc(N4CCCN(C)CC4)nc3n3c2sc2ccccc23)cn1,IC50,second compound 0.0316 µM,> 10 µM
same,IC50,second compound 0.1 µM,> 10 µM
same,IC50,second compound 0.316 µM,< 0.0316 µM
same,IC50,second compound 1 µM,< 0.0316 µM
same,IC50,second compound 3.16 µM,< 0.0316 µM
same,IC50,second compound 10 µM,< 0.0316 µM
same,"viability, T/C",[1],67.1%
same,"viability, T/C",[2],62.3%
same,"viability, T/C",[3],78.3%
same,"viability, T/C",[4],69%
same,"viability, T/C",[5],65.4%
same,"viability, T/C",[6],68.1%
same,"viability, T/C",[7],57.4%
same,"viability, T/C",[8],57.8%
same,"viability, T/C",[9],55.4%
same,"viability, T/C",[10],57%
same,"viability, T/C",[11],59.8%
same,"viability, T/C",[12],51.6%
same,"viability, T/C",[13],46.8%
same,"viability, T/C",[14],44.9%
same,"viability, T/C",[15],47.6%
same,"viability, T/C",[16],53.5%
same,"viability, T/C",[17],54.1%
same,"viability, T/C",[18],46.8%
same,"viability, T/C",[19],41.6%
same,"viability, T/C",[20],48.2%
same,"viability, T/C",[21],45.7%
same,"viability, T/C",[22],42.9%
same,"viability, T/C",[23],47.7%
same,"viability, T/C",[24],41%
same,"viability, T/C",[25],37.3%
same,"viability, T/C",[26],36.5%
same,"viability, T/C",[27],39.4%
same,"viability, T/C",[28],42.6%
same,"viability, T/C",[29],42.4%
same,"viability, T/C",[30],37.6%
same,"viability, T/C",[31],32.3%
same,"viability, T/C",[32],34.1%
same,"viability, T/C",[33],34%
same,"viability, T/C",[34],35.9%
same,"viability, T/C",[35],39.7%
same,"viability, T/C",[36],30.2%
CC1COCCN1c1cc(-c2ccnn2C)c2ccnc(-c3ccn[nH]3)c2n1 (stereo not drawn) + Cc1cnc(CNC(=O)c2c(=O)c3ccc(N4CCCN(C)CC4)nc3n3c2sc2ccccc23)cn1,IC50,second compound 0.0316 µM,< 0.0316 µM
same,IC50,second compound 0.1 µM,< 0.0316 µM
same,IC50,second compound 0.316 µM,< 0.0316 µM
same,IC50,second compound 1 µM,< 0.0316 µM
same,IC50,second compound 3.16 µM,< 0.0316 µM
same,IC50,second compound 10 µM,< 0.0316 µM
same,"viability, T/C",[1],43.9%
same,"viability, T/C",[2],32.6%
same,"viability, T/C",[3],29.8%
same,"viability, T/C",[4],25.8%
same,"viability, T/C",[5],18.7%
same,"viability, T/C",[6],14.7%
same,"viability, T/C",[7],42.2%
same,"viability, T/C",[8],37.7%
same,"viability, T/C",[9],30.2%
same,"viability, T/C",[10],22.6%
same,"viability, T/C",[11],17.3%
same,"viability, T/C",[12],14.9%
same,"viability, T/C",[13],38.8%
same,"viability, T/C",[14],38.2%
same,"viability, T/C",[15],30.6%
same,"viability, T/C",[16],24%
same,"viability, T/C",[17],17.5%
same,"viability, T/C",[18],10.9%
same,"viability, T/C",[19],36.9%
same,"viability, T/C",[20],36.6%
same,"viability, T/C",[21],29.1%
same,"viability, T/C",[22],22.2%
same,"viability, T/C",[23],15.4%
same,"viability, T/C",[24],11.1%
same,"viability, T/C",[25],33.6%
same,"viability, T/C",[26],29.1%
same,"viability, T/C",[27],25%
same,"viability, T/C",[28],20.8%
same,"viability, T/C",[29],13.3%
same,"viability, T/C",[30],9.84%
same,"viability, T/C",[31],28.5%
same,"viability, T/C",[32],24.7%
same,"viability, T/C",[33],23.4%
same,"viability, T/C",[34],18.4%
same,"viability, T/C",[35],14.4%
same,"viability, T/C",[36],8.93%
C#Cc1c(F)ccc2cc(O)cc(-c3ncc4c(N5CC6CCC(C5)N6)nc(OCC56CCCN5CC(F)C6)nc4c3F)c12 (stereo not drawn) + Cc1[nH]c2ccc(F)cc2c1-c1nc2c3cccnc3c3ncccc3c2[nH]1,IC50,second compound 0.0316 µM,> 10 µM
same,IC50,second compound 0.1 µM,> 10 µM
same,IC50,second compound 0.316 µM,> 10 µM
same,IC50,second compound 1 µM,> 10 µM
same,IC50,second compound 3.16 µM,4.83 µM
same,IC50,second compound 10 µM,4.06 µM
same,"viability, T/C",[1],103%
same,"viability, T/C",[2],89.9%
same,"viability, T/C",[3],93.8%
same,"viability, T/C",[4],81.1%
same,"viability, T/C",[5],75.7%
same,"viability, T/C",[6],60.6%
same,"viability, T/C",[7],89.7%
same,"viability, T/C",[8],107%
same,"viability, T/C",[9],83.7%
same,"viability, T/C",[10],88.4%
same,"viability, T/C",[11],69.8%
same,"viability, T/C",[12],64%
same,"viability, T/C",[13],89.3%
same,"viability, T/C",[14],86.7%
same,"viability, T/C",[15],82.7%
same,"viability, T/C",[16],81.1%
same,"viability, T/C",[17],77.5%
same,"viability, T/C",[18],60.6%
same,"viability, T/C",[19],78.8%
same,"viability, T/C",[20],82%
same,"viability, T/C",[21],82.5%
same,"viability, T/C",[22],74.6%
same,"viability, T/C",[23],71.5%
same,"viability, T/C",[24],56.6%
same,"viability, T/C",[25],63.5%
same,"viability, T/C",[26],66.1%
same,"viability, T/C",[27],65.7%
same,"viability, T/C",[28],66.2%
same,"viability, T/C",[29],52%
same,"viability, T/C",[30],41.1%
same,"viability, T/C",[31],58%
same,"viability, T/C",[32],60.7%
same,"viability, T/C",[33],60.7%
same,"viability, T/C",[34],62.4%
same,"viability, T/C",[35],52.8%
same,"viability, T/C",[36],34.7%
Cc1cccc(N(C)C(=O)C2C(O)CCN2c2nc(C)cc(C(F)(F)F)c2C#N)c1 (stereo not drawn) + Cc1cnc(CNC(=O)c2c(=O)c3ccc(N4CCCN(C)CC4)nc3n3c2sc2ccccc23)cn1,IC50,second compound 0.0316 µM,> 10 µM
same,IC50,second compound 0.1 µM,0.814 µM
same,IC50,second compound 0.316 µM,< 0.0316 µM
same,IC50,second compound 1 µM,< 0.0316 µM
same,IC50,second compound 3.16 µM,< 0.0316 µM
same,IC50,second compound 10 µM,< 0.0316 µM
same,"viability, T/C",[1],66.2%
same,"viability, T/C",[2],64.1%
same,"viability, T/C",[3],59.2%
same,"viability, T/C",[4],65%
same,"viability, T/C",[5],60.5%
same,"viability, T/C",[6],67.8%
same,"viability, T/C",[7],55.1%
same,"viability, T/C",[8],52%
same,"viability, T/C",[9],53.7%
same,"viability, T/C",[10],48.3%
same,"viability, T/C",[11],47.5%
same,"viability, T/C",[12],46.8%
same,"viability, T/C",[13],40%
same,"viability, T/C",[14],41.5%
same,"viability, T/C",[15],46%
same,"viability, T/C",[16],50.9%
same,"viability, T/C",[17],43.4%
same,"viability, T/C",[18],44.5%
same,"viability, T/C",[19],41.2%
same,"viability, T/C",[20],42.1%
same,"viability, T/C",[21],41.4%
same,"viability, T/C",[22],39.9%
same,"viability, T/C",[23],37.3%
same,"viability, T/C",[24],37.7%
same,"viability, T/C",[25],36.3%
same,"viability, T/C",[26],35%
same,"viability, T/C",[27],32.1%
same,"viability, T/C",[28],33.5%
same,"viability, T/C",[29],37.2%
same,"viability, T/C",[30],35%
same,"viability, T/C",[31],27.2%
same,"viability, T/C",[32],33.9%
same,"viability, T/C",[33],27.9%
same,"viability, T/C",[34],31.4%
same,"viability, T/C",[35],34.2%
same,"viability, T/C",[36],24.2%
